{
  "source": "patent US12295970B2",
  "about": "“Imidazoquinoline compounds and prodrugs thereof” (UNIVERSITY OF KANSAS, priority 2019, dated 2025)",
  "system": "canine PBMCs",
  "assay": "In vitro cytokine secretion assay in canine PBMCs (Example 3)",
  "format": "cell-based",
  "conditions": "15 hours, ELISA",
  "source_text": "As a TLR7/8 agonist, R848 binds to endosomal TLR7 and 8 receptors located on antigen presenting cells (APCs). The activation of APCs produces pro-inflammatory cytokines including TNF-α, type I IFN and IL-12. These cytokines, together with stimulated APCs that take up tumor antigens, enhance the activation of anti-tumor Th-1 immune responses that involve both CD4^+ T helper cells and CD8^+ cytotoxic T cells.^16 To evaluate the Th-1 associated cytokine production in vitro, isolated canine PBMCs were treated with R848, formulated or unformulated R848-Toco, and the secretion of TNF-α and IL-12 were measured by ELISA as markers of generalized inflammatory response. Canines were chosen as a model over mice because of the greater genetic similarity to humans and more similar immune systems.^46 Peripheral blood from healthy canine donors of 7-10 years age (similar to the age of typical canines with cancer^14) was obtained with appropriate informed consent of the owner. Blood (8 mL per tube) was drawn via sterile venipuncture into a BD Vacutainer cell preparation tube containing sodium heparin (BD Biosciences). PBMCs were isolated within one hour following procurement by density gradient centrifugation according to the manufacturer protocol and resuspended to 3×10^6 cells/mL in sterile RPMI 1640 medium with L-glutamine (Gibco) supplemented with 100 IU/mL penicillin, 100 μg/mL streptomycin (Corning) and 10% (v/v) heat-inactivated Fetalgro (RMBIO). Corning 3917, 96-well tissue culture treated plates were seeded with the PBMC suspension (180 μL/well), 20 μL of the serially diluted R848 samples were added in triplicate and HA-Toco vehicle in duplicate to yield the desired concentrations in a 1% (v/v) DMSO cell suspension. […] Sample cytokine concentrations were determined by interpolation of a four-parameter logistic curve of the recombinant standards using GraphPad Prism 6. […] Cytokine secretion levels were measured by ELISA (Duoset, R&D Systems, Minneapolis, MN, USA) according to the manufacturer protocol.",
  "data": [
    {"molecule": "CCOCc1nc2c(N)nc3ccccc3c2n1CC(C)(C)O", "note": "[Compound 2, resiquimod, reference compound]", "values": [
      {"measurement": "IL-12 levels", "value": "highest"},
      {"measurement": "secretion of TNF-α", "value": "strong secretion"}
    ]}
  ]
}
